{"source": "patent US20050070602A1", "about": "“Method of modulating immune response by administration of immuno-activation agent” (priority 2003, published 2005)", "key": {"xenografted PC-3 tumors [1]": {"system": "xenografted PC-3 tumors", "test": "Apoptotic cells in xenografted tumors by TUNEL", "type": "in vivo, mice", "conditions": "nine weeks PEITC-NAC diet", "protocol": "The apoptotic cells of xenografted tumors were determined with paraffin embedded tissue slides by the characteristic nucleus morphology, and by the presence of DNA strand breaks using the terminal deoxynucleotidyl tranferase-mediated biotinylated UTP nick end labeling (TUNEL). An in situ detection kit from Roche Molecular Biochemicals, Indianapolis, Ind. was employed according to manufacturer's direction (17). Multiple fields, but not necrotic tissues, were determined for apoptotic cells."}, "PC-3 cell antigens": {"system": "PC-3 cell antigens", "test": "Serum antibodies against cultured PC-3 cells, indirect immunofluorescence with flow cytometry", "type": "in vivo, mice", "protocol": "The reaction of serum antibodies from mice on the experimental or control diet with cultured PC-3 cells was analyzed with an indirect immunofluorescent antibody technique. A fluoresecin-labeled goat IgG-(Fab′)2 antibody against mouse Ig was used as the second antibody. PC-3 cells stained with a nonspecific mouse IgG as the first antibody were used as a background. The proportion of the positively stained cells and the mean fluorescence intensity were analyzed with the intensity channel on a flow cytometer.\nMouse sera were incubated with cultured PC-3 cells to detect the presence and reactivity of antibodies against PC-3 antigens using an indirect immunofluorescent antibody technique. The proportion of the positively stained cells and the mean fluorescence intensity were analyzed by a flow cytometric method. […] For example, at the titer of 20, the antisera from mice on experimental diet detected approximately 24-38% cells while approximately 7-16% cells detected with the sera from mice on the control diet."}, "Rb": {"system": "Rb", "test": "Western blot of xenografted tumors: Rb phosphorylation", "type": "in vivo, human", "conditions": "experimental tumors vs controls", "protocol": "(§1) The protein levels of xenografts were determined by Western blot analyses using standard procedures (19). Total proteins were prepared from each group of pooled individual xenografts of equal weight. The tissues were homogenized in the presence of a lysis buffer with protease inhibitors (17) and lysates collected after centrifugation at 4° C. Polyclonal antibodies against human p21^WAF-1/Cip-1, p27^Kip1, cyclin E, and an anti-cyclin D1 cross reactive with cyclins D2 and D3, an anti-Rb reactive with both phosphorylated and non-phosphorylated proteins, and an antibody against intact poly (ADP-ribose) polymerase (PARP) and the 89 kDa fragment were purchased from Santa Cruz Biotechnology. Preferably the endogenous cyclin-dependent kinase inhibitors are p151NK4B, p161NK4A, p181NK4C, p191NK4D, p21WAF-1/Cip-1, p27Kip1 and/or p57 that inhibit cyclin-dependent kinases."}, "[2]": {"system": "B cells and NK cells in the peripheral blood", "test": "B and NK cells in peripheral blood by direct fluorescent antibody flow cytometry", "type": "in vivo, mice", "description": "(§2) Five week-old BALB/c (nu/nu) male mice purchased from Charles River Laboratories (Wilmington, Mass.) were housed in a barrier facility with 12-h light/dark cycles; tap water and diets provided ad libitum. They were randomly divided into two groups of nine mice. […] The diets began one week prior to inoculation of PC-3 cells and continued until termination of experiments. The xenografted tumors were established by a single s.c. injection in the flank of 0.8×10^6 PC-3 cells suspended in ice-cold matrigel (sigma). The tumor volumes were measured every 7-8 days and calculated by length×width×height×0.5236. Animal body weights were recorded weekly and at autopsy; food consumption was determined twice per week. Two hours before the mice were euthanized, 5-bromo-2′-deoxyuridine (BrdU) (10 mg/kg body weight) was injected in the peritoneum for in vivo labeling of proliferating cells. At autopsy, xenograft tumors were weighed and frozen in liquid nitrogen or fixed in 10% formalin and embedded in paraffin. The BrdU-labeled cells of paraffin embedded tissues on slides were detected employing a monoclonal anti-BrdU antibody from a BrdU detection kit (Roche Molecular Biochemicals) according to manufacturer's direction. The mean numbers of labeled cells from multiple fields were calculated. The comparisons between control and experimental groups were performed with Student's t test.\nMonoclonal antibodies against mouse B cell antigen CD19 or against Pan NK cell antigen CD49b were used. A mouse isotype control was used as a background.\nThe quantities of B cells and NK cells in the peripheral blood of all mice were determined by direct immunofluorescent antibody technique with the flow cytometric method. Monoclonal antibodies against mouse B cell antigen CD19 or against mouse Pan NK cell antigen CD49b were used."}, "[3]": {"system": "human prostate cancer PC-3 cells", "test": "Xenograft tumor assay, PC-3 cells in BALB/c (nu/nu) mice", "type": "in vivo", "description": "as §2"}, "[4]": {"system": "PARP (poly (ADP-ribose) polymerase)", "test": "Western blot of PARP cleavage in xenografted tumors", "type": "in vivo, human", "conditions": "pooled experimental tumors vs control", "protocol": "as §1"}, "cyclin D1": {"system": "cyclin D1", "test": "Western blot of xenografted tumors: cyclin D1", "type": "in vivo, human", "conditions": "pooled experimental tumors vs controls", "protocol": "as §1"}, "prostate cancer cells": {"system": "prostate cancer cells", "conditions": "earlier report (ref. 12); cited from earlier work"}, "xenografted PC-3 tumors [5]": {"system": "xenografted PC-3 tumors", "test": "Proliferating (BrdU-labeled) and mitotic cells in xenografted tumors", "type": "in vivo, mice", "description": "as §2"}, "[6]": {"description": "as §2"}, "PC-3 cells": {"system": "PC-3 cells", "test": "Cell cycle phases of cultured PC-3 cells by flow cytometry", "type": "cell-based, human", "conditions": "exposure for 24 hours in cultures", "protocol": "The product was crystallized from hexane, and purity established by HPLC, NMR and MS; purity was greater than 98%. A human prostate cancer cell line, androgen-independent PC-3 was used as antigen in this invention. PC-3 cells were seeded at 1.5×10^5 cells/ml in RPMI-1640 containing 15% heat inactivated fetal calf serum with 1% penicillin (10,000 units/ml) and streptomycin (10,000 μg/ml) (15). Cell cycle phase determination was performed using a BD FACScan cytometer according to published procedures (16, 17). The cells were fixed with 80% ethanol at 4° C. and incubated on ice before the DNA was stained with propidium iodide (50 μg/ml)."}, "xenografted PC-3 tumors [7]": {"system": "xenografted PC-3 tumors", "test": "Histology and immunohistochemical staining of xenografted tumor tissue for immune cells and bound mouse Ig", "type": "in vivo, mice", "description": "as §2\nThe changes of B and NK cells were further examined in the-frozen and paraffin embedded xenografted tumor tissues by for immunohistochemical staining. Mouse B cells were identified with a primary monoclonal rat anti-B220 antibody, and NK cells of immunodeficient mice detected with a rat anti-mouse CD90.2 (18) primary antibody (BD PharMingen). A biotin-conjugated goat anti-rat Ig was used as a secondary antibody, with chromogen color development using an ImmunoCruz Staining System (Santa Cruz Biotechnology). A rat IgG2aK was used as an isotype control. The binding of mouse Ig to xenografted tumor cells was determined by a direct antibody staining method using a biotinylated goat anti-mouse Ig (BD PhaMingen), or an isotype Ig control."}}, "note": "“And” between values parts separate entries of the source, which are not always exact repeats. Equal values may be shown once.", "data": [{"compound": "CC(=O)N[C@@H](CSC(=S)NCCc1ccccc1)C(=O)O", "note": "[PEITC-NAC, N-acetylcysteine conjugate of phenethyl isothiocyanate]", "values": [{"measurement": "elevation of apoptotic rate vs control tumors", "setting": "xenografted PC-3 tumors [1]", "value": "approximately two"}, {"measurement": "average apoptotic rate of tumors", "setting": "xenografted PC-3 tumors [1]; control 14.4%, P=0.02", "value": 29.29, "unit": "%"}, {"measurement": "antisera titer against PC-3 cell antigens", "setting": "PC-3 cell antigens; 6 weeks after injection of PC-3 cells, vs basal control diet", "value": "higher titer"}, {"measurement": "mean fluorescence on stained PC-3 cells", "setting": "PC-3 cell antigens; antisera from experimental diet mice vs control mice sera", "value": "significantly more intense"}, {"measurement": "PC-3 cells detected by antisera", "setting": "PC-3 cell antigens; serum titer of 20, mice on experimental diet, control diet 7-16%", "value": "24-38%"}, {"measurement": "Rb phosphorylation", "setting": "Rb", "value": "significant reduction of Rb phosphorylation"}, {"measurement": "Mean of NK Cells (%), average of experimental mice", "setting": "[2]; average of 3 experimental mice, control average 24.4, PEITC-NAC diet 8 μmol/g", "value": 30.5, "unit": "%"}, {"measurement": "Mean of B Cells (%), average of experimental mice", "setting": "[2]; average of 3 experimental mice, control average 30.5, PEITC-NAC diet 8 μmol/g", "value": 42.0, "unit": "%"}, {"measurement": "Mean of B Cells (%)", "setting": "[2]; individual experimental mice, peripheral blood, CD19, % of total mononuclear cells, PEITC-NAC diet 8 μmol/g of AIN-76A, 30 days, PC-3 xenografted nude mice", "value": "45.8% and 42.1% and 38.3%"}, {"measurement": "Mean of NK Cells (%)", "setting": "[2]; individual experimental mice, peripheral blood, CD49b, % of total mononuclear cells, PEITC-NAC diet 8 μmol/g of AIN-76A, 30 days, PC-3 xenografted nude mice", "value": "27.6% and 38.0% and 26.0%"}, {"measurement": "tumor incidence", "setting": "[3]; PEITC-NAC diet 8 μmol/g, control 100%", "value": 88, "unit": "%"}, {"measurement": "time for tumors to be palpable", "setting": "[3]; after inoculation of PC-3 cells, PEITC-NAC diet 8 μmol/g, control 7-10 days", "value": "7 to 22", "unit": "days"}, {"measurement": "tumor volumes vs control tumors", "setting": "[3]; during study period, P<0.05", "value": "smaller"}, {"measurement": "mice with tumor inhibition", "setting": "[3]; mice fed with PEITC-NAC diet", "value": 100, "unit": "%"}, {"measurement": "cleaved PARP fragments incl. 89 kDa fragment", "setting": "[4]", "value": "Significant increase of the cleaved fragments"}, {"measurement": "reduced expression of cyclin D1", "setting": "cyclin D1", "value": 32, "unit": "%"}, {"measurement": "growth of prostate cancer cells in cultures", "setting": "prostate cancer cells", "value": "significantly inhibited"}, {"measurement": "proliferating cells, less than in control mice", "setting": "xenografted PC-3 tumors [5]; BrdU labeling, tumors at autopsy", "value": "approximately 75%"}, {"measurement": "mitotic figures", "setting": "xenografted PC-3 tumors [5]; tumors from PEITC-NAC fed mice, control greater than five per field", "value": "three"}, {"measurement": "daily food consumption, less than control mice", "setting": "[6]; PEITC-NAC diet", "value": "approximately 6.5%"}, {"measurement": "average weights of kidneys and spleens vs controls", "setting": "[6]; at autopsy, P>0.13", "value": "the difference was not significant"}, {"measurement": "average body weight at termination", "setting": "[6]; experimental mice, control mice 21.89 g", "value": 20.93, "unit": "g"}, {"measurement": "behavior of animals", "setting": "[6]; throughout the study period, PEITC-NAC diet", "value": "no signs of unusual behavior"}, {"measurement": "cell cycle phases of PC-3 cells", "setting": "PC-3 cells", "value": "concentration-related reduction of S- and G2M-phases"}, {"measurement": "lymphocytes around tumor nodules", "setting": "xenografted PC-3 tumors [7]; H & E sections, after nine weeks of PEITC-NAC diet, not in control mice", "value": "surrounded by aggregates of small lymphocytes"}, {"measurement": "NK cell receptor NKG2A/C/E among infiltrating cells", "setting": "xenografted PC-3 tumors [7]; immunohistochemical staining, PEITC-NAC treated mice", "value": "demonstrated among cells infiltrating around the tumor nodules"}, {"measurement": "B220 staining of lymphocytes around tumor nodules", "setting": "xenografted PC-3 tumors [7]; immunohistochemical staining, experimental tumors", "value": "great majority of them were B cells bearing marker B220"}, {"measurement": "CD90.2 staining of lymphocytes around tumor nodules", "setting": "xenografted PC-3 tumors [7]; immunohistochemical staining, marker for T and NK cells", "value": "Small quantity of lymphocytes stained positive for CD90.2"}, {"measurement": "mouse immunoglobulins bound to xenografted tumor cells", "setting": "xenografted PC-3 tumors [7]; immunoperoxidase staining, experimental but not control tumors", "value": "bound mouse immunoglobulins"}]}]}
